From patent publication US20220050096A1, “ANALYTE-SENSITIVE PROBES AND CONTACT LENS FOR DIAGNOSIS OF OCULAR PATHOLOGIES” (University Of Maryland, Baltimore, priority 2020, published 2022)
Several values for one entry are separate records, joined by “and”; a condition that tells them apart may be missing. Equal entries are not always repeated. Where two headings read alike, the source gives them in different places.

Columns and labels:
[1] = Sodium binding affinity (mid-point) of SG in buffer; conditions: read-out: Na^+ binding constant / binding affinity (mid-point)
Description: (§1) Fluorescence Spectroscopic Measurements. Fluorescence intensities and intensity decays were measured using a Varian™ Eclipse 4 spectrofluorometer and a FluoTime300 instrument from PicoQuant™ (Berlin, Germany) and analyzed with the EasyTau™ software. The excitation source was a 473 nm laser diode with a repetition rate of 40 MHZ and a pulse width less than 100 ps. In other embodiments, the excitation source for SG-PL was at 495 nm from a Solea™ supercontinuum laser (PicoQuant™, Germany) and a 375 nm laser diode (PDL 375, PicoQuant™), a repetition rate of 40 MHz, and a pulse width less than 100 ps. Some intensity and lifetime measurements for SG-PL (as indicated) were performed using Alba V confocal fluorescence lifetime microscopy, FLIM (ISS, Urbana, Ill.), with excitation source of a 473 nm laser diode with a repetition rate of 40 MHz and a pulse width near 250 ps.
Sodium Binding Affinity. The sodium affinity of the labeled lenses can be described in terms of the dissociation constant. The dissociation reaction for the probe complexed with Na+ can be written as
P—Na^+↔P+Na^+ (equation 4)
where P is the free probe with no bound sodium in the dissociation constant KD is given. The ratio of sodium free and sodium bound probe is given by
The binding affinity is given as the mid-point (MP) of the ion-dependent response where the spectral change is 50% complete. […]

[2] = cited from earlier work; for Kd: read-out: K (mM), binding constant
[3] = Chloride-dependent intensity decay analysis of SPQ-C18 in MyDay contact lenses, 20 mM MOPS pH 7.3; format: physicochemical
Description: as §1
Intensity decays were measured at the emission maximum with the band of 10 to 20 nm, analyzed in terms of the multi-exponential model:
I(t)=Σαi exp(−t/ti) (equation 1)
where ti are the individual decay times and αi the initial time-zero amplitudes. The mean decay time can be represented in two ways. The average lifetime is given by:
where Σαi=1.0 and Σfi=1.0. The term fi=αi τi is proportional to the fractional contribution of each component to the total intensity decay. The term τi/Σαi τi is the fractional contribution to the steady state emission. Here, we use the amplitude-weighted lifetime given by
which is appropriate when the emission is from a single fluorophore with a changing quantum yield. For a single exponential decay, the lifetime is given by τ=1.0/(knr+Γ) and the quantum yield is given by Q=Γ/(knr+Γ) where knr is the sum of all non-radiative decay rates and Γ is the radiative decay rate. The value of Γ is determined by the molecular extinction coefficient that remains constant under most conditions. For a single type of fluorophore with a constant value of Γ the normalized αi values represent the molecular fraction of each decay time component. The value of αi and τi were determined by non-linear least squares fitting using PicoQuant™ software.
Quenching by Chloride. Collisional quenching occurs, for example, when SPQ-C18 (also referred to as OD-MQB (N-Octadecyl-6-methoxyquinolinium bromide)) has a diffusion collision with a chloride ion. The intensities (I) and lifetimes (6) are analyzed using the Stern-Volmer equation,
SPQ-C18 was synthesized using 6-methoxy quinolinium (SPQ) and 1-bromooctadecane (C18) as described in the art. Lenses were labeled by incubation with 3 ml of a 1 μM solution of SPQ-C18 in methanol-water. SPQ-C18 bound rapidly to the Biofinity™ lenses. […] Unless stated otherwise, all spectral measurements conducted for the present study were performed in 20 mM MOPS buffer, 8 mM KCl, pH 7.2, at room temperature.

For `COc1cc(N2CCOCCOCCN(c3cc(OC)c(NC(=O)c4ccc(-c5c6cc(Cl)c(=O)cc-6oc6cc([O-])c(Cl)cc56)c(C(=O)[O-])c4)cc3OC)CCOCC2)c(OC)cc1NC(=O)c1ccc(-c2c3cc(Cl)c(=O)cc-3oc3cc([O-])c(Cl)cc23)c(C(=O)[O-])c1.C[N+](C)(C)C.C[N+](C)(C)C.C[N+](C)(C)C.C[N+](C)(C)C` [SG], the Kd [1] is listed as ~10 mM and ~6.5 mM, the “Lifetime (ns), cation-bound form” value ([2]; cation-bound form (in parentheses)) is listed as 2.38 ns and the “Lifetime (ns), free form” value ([2]; free form) is listed as 3.34 ns. For the same molecule, the Kd ([2]; listed as Na Green) was 6 mM, the Kd ([2]; listed as Sodium Green) was about 5 mM and the Kd [2] was 6 to 10 mM.

`CCCCCCCCCCCCCCCCCC[n+]1cccc2cc(OC)ccc21` [SPQ-C18, N-Octadecyl-6-methoxyquinolinium bromide] gave a f1 ([3]; NaCl 0 mM) of 0.074, a f2 ([3]; NaCl 0 mM) of 0.191 and a f3 ([3]; NaCl 0 mM) of 0.735. For the same molecule, the α1 ([3]; NaCl 0 mM) was 0.560, the α2 ([3]; NaCl 0 mM) was 0.187 and the α3 ([3]; NaCl 0 mM) was 0.253. The τ1 ([3]; NaCl 0 mM) was 1.03 ns, the τ2 ([3]; NaCl 0 mM) was 8.00 ns and the τ3 ([3]; NaCl 0 mM) was 22.78 ns. The τf ([3]; NaCl 0 mM) was 18.36 ns, the τα ([3]; NaCl 0 mM) was 7.83 ns and the f1 ([3]; NaCl 10 mM) was 0.078. The f2 ([3]; NaCl 10 mM) was 0.315, the f3 ([3]; NaCl 10 mM) was 0.607 and the α1 ([3]; NaCl 10 mM) was 0.496. It also gave a α2 ([3]; NaCl 10 mM) of 0.290, a α3 ([3]; NaCl 10 mM) of 0.214 and a τ1 ([3]; NaCl 10 mM) of 1.05 ns. It also gave a τ2 ([3]; NaCl 10 mM) of 7.22 ns, a τ3 ([3]; NaCl 10 mM) of 18.80 ns and a τf ([3]; NaCl 10 mM) of 13.76 ns. For the same molecule, the τα ([3]; NaCl 10 mM) was 6.63 ns, the f1 ([3]; NaCl 20 mM) was 0.102 and the f2 ([3]; NaCl 20 mM) was 0.306. The f3 ([3]; NaCl 20 mM) was 0.592, the α1 ([3]; NaCl 20 mM) was 0.554 and the α2 ([3]; NaCl 20 mM) was 0.263. The α3 ([3]; NaCl 20 mM) was 0.183, the τ1 ([3]; NaCl 20 mM) was 1.12 ns and the τ2 ([3]; NaCl 20 mM) was 7.04 ns. It also gave a τ3 ([3]; NaCl 20 mM) of 19.59 ns, a τf ([3]; NaCl 20 mM) of 13.86 ns and a τα ([3]; NaCl 20 mM) of 6.05 ns. The f1 ([3]; NaCl 40 mM) was 0.126, the f2 ([3]; NaCl 40 mM) was 0.375 and the f3 ([3]; NaCl 40 mM) was 0.499. For the same molecule, the α1 ([3]; NaCl 40 mM) was 0.590, the α2 ([3]; NaCl 40 mM) was 0.275 and the α3 ([3]; NaCl 40 mM) was 0.136. The τ1 ([3]; NaCl 40 mM) was 1.06 ns, the τ2 ([3]; NaCl 40 mM) was 6.78 ns and the τ3 ([3]; NaCl 40 mM) was 18.24 ns. The τf ([3]; NaCl 40 mM) was 11.78 ns, the τα ([3]; NaCl 40 mM) was 4.96 ns and the f1 ([3]; NaCl 80 mM) was 0.148. For the same molecule, the f2 ([3]; NaCl 80 mM) was 0.373, the f3 ([3]; NaCl 80 mM) was 0.478 and the α1 ([3]; NaCl 80 mM) was 0.601. It also gave a α2 ([3]; NaCl 80 mM) of 0.284, a α3 ([3]; NaCl 80 mM) of 0.115 and a τ1 ([3]; NaCl 80 mM) of 1.05 ns. For the same molecule, the τ2 ([3]; NaCl 80 mM) was 5.58 ns, the τ3 ([3]; NaCl 80 mM) was 17.70 ns and the τf ([3]; NaCl 80 mM) was 10.71 ns. It also gave a τα ([3]; NaCl 80 mM) of 4.25 ns, a f1 ([3]; NaCl 140 mM) of 0.177 and a f2 ([3]; NaCl 140 mM) of 0.368. For the same molecule, the f3 ([3]; NaCl 140 mM) was 0.455, the α1 ([3]; NaCl 140 mM) was 0.649 and the α2 ([3]; NaCl 140 mM) was 0.253. It also gave a α3 ([3]; NaCl 140 mM) of 0.099, a τ1 ([3]; NaCl 140 mM) of 1.01 ns and a τ2 ([3]; NaCl 140 mM) of 5.39 ns. The τ3 ([3]; NaCl 140 mM) was 17.05 ns, the τf ([3]; NaCl 140 mM) was 9.92 ns and the τα ([3]; NaCl 140 mM) was 3.70 ns. For the same molecule, the f1 ([3]; NaCl 220 mM) was 0.191, the f2 ([3]; NaCl 220 mM) was 0.425 and the f3 ([3]; NaCl 220 mM) was 0.284. For the same molecule, the α1 ([3]; NaCl 220 mM) was 0.636, the α2 ([3]; NaCl 220 mM) was 0.282 and the α3 ([3]; NaCl 220 mM) was 0.081. It also gave a τ1 ([3]; NaCl 220 mM) of 0.94 ns, a τ2 ([3]; NaCl 220 mM) of 4.71 ns and a τ3 ([3]; NaCl 220 mM) of 14.81 ns. For the same molecule, the τf ([3]; NaCl 220 mM) was 7.87 ns and the τα ([3]; NaCl 220 mM) was 3.13 ns.
